Laboratory results reported in patent US5028715A, “Radioprotective agents and their method of manufacture” (priority 1989, dated 1991).
Read-outs that look alike come from different tables or passages of the source.

Tests used:
Format in all cases: in vivo
test mice [1] = test: Radioprotective activity in mice against LD100 of γ-radiation (1000 RAD) (Table II); details: for toxicity (in words): at the levels used in this test; for protection against LD100 dose of irradiation (in words): dose level near the LD50 (50 mg/kg), all the mice survived
[2] = Acute toxicity in mice (Table I); details: mouse, in vivo; for survival: read-out: Survivors (%); for LD50: mice, ip
Protocol: (§1) Radioprotective Agents A, B, C, and D were tested for acute toxicity and radioprotective activity using test mice at various dosage levels against LD100 of γ-radiation. The agents were administered interperitoneally (ip).

test mice [3] = test: Acute toxicity in mice (Table I); details: vehicle H2O
Protocol: as §1

[4] = 75 mg/kg ip, 30 min before 1000 RAD
[5] = 150 mg/kg ip, 30 min before 1000 RAD
[6] = 300 mg/kg ip, 30 min before 1000 RAD
[7] = 300 mg/kg po, 30 min before 1000 RAD
[8] = 600 mg/kg po, 30 min before 1000 RAD
[9] = 1200 mg/kg po, 30 min before 1000 RAD
[10] = 18.75 mg/kg ip, 30 min before 1000 RAD
[11] = 37.5 mg/kg ip, 30 min before 1000 RAD
[12] = 54.3 mg/kg ip, 30 min before 1000 RAD
[13] = 109 mg/kg ip, 30 min before 1000 RAD
[14] = 217 mg/kg ip, 30 min before 1000 RAD
[15] = 435 mg/kg ip, 30 min before 1000 RAD
[16] = 55.1 mg/kg ip, 0 min before 1000 RAD
[17] = 110.3 mg/kg ip, 0 min before 1000 RAD
[18] = 220.6 mg/kg ip, 0 min before 1000 RAD
[19] = 441 mg/kg ip, 0 min before 1000 RAD

Compound	Drug Related Lethality (test mice [1]; [4])	Survivors (%) (test mice [1]; [4])	toxicity (in words) (test mice [1])	survival ([2]; 75 mg/kg ip, vehicle H2O) [%]	survival ([2]; 150 mg/kg ip, vehicle H2O) [%]	survival ([2]; 300 mg/kg ip, vehicle H2O) [%]	survival ([2]; 600 mg/kg ip, vehicle H2O) [%]	Deaths (test mice [3]; 75 mg/kg ip)	Deaths (test mice [3]; 150 mg/kg ip)	Deaths (test mice [3]; 300 mg/kg ip)	Deaths (test mice [3]; 600 mg/kg ip)	protection against LD100 dose of irradiation (in words) (test mice [1])	survival ([2]; 37.5 mg/kg ip, vehicle H2O) [%]	LD50 [2] [mg/kg]	also measured
NCCCN1CCSC1c1ccc([N+](=O)[O-])cc1 (stereo not drawn) [A]	0/10	20	toxic	100	100	60	0	0/5	0/5	2/5	5/5				Drug Related Lethality (test mice [1]; [5]): 0/10; Survivors (%) (test mice [1]; [5]): 30%; Drug Related Lethality (test mice [1]; [6]): 5/10; Survivors (%) (test mice [1]; [6]): 40%; Drug Related Lethality (test mice [1]; [7]): 0/10; Survivors (%) (test mice [1]; [7]): 0%; Drug Related Lethality (test mice [1]; [8]): 0/10; Survivors (%) (test mice [1]; [8]): 0%; Drug Related Lethality (test mice [1]; [9]): 7/10; Survivors (%) (test mice [1]; [9]): 0%
COc1ccc(C2SCCN2CCCN)cc1 (stereo not drawn) [B]	0/10	20	toxic	100	20	0	0	0/5	4/5	5/5	5/5				Drug Related Lethality (test mice [1]; [10]): 0/10; Survivors (%) (test mice [1]; [10]): 0%; Drug Related Lethality (test mice [1]; [11]): 0/10; Survivors (%) (test mice [1]; [11]): 0%
COc1ccc(C2SCCN2CCCN)cc1OC (stereo not drawn) [C]				0	0	0		5/5	5/5	5/5		complete protection	100	50	Drug Related Lethality (test mice [1]; [12]): 0/5; Survivors (%) (test mice [1]; [12]): 100%; Drug Related Lethality (test mice [1]; [13]): 5/5; Survivors (%) (test mice [1]; [13]): 0%; Drug Related Lethality (test mice [1]; [14]): 5/5; Survivors (%) (test mice [1]; [14]): 0%; Drug Related Lethality (test mice [1]; [15]): 5/5; Survivors (%) (test mice [1]; [15]): 0%; mortality ([2]; 37.5 mg/kg ip, vehicle H2O, read-out: Deaths): 50%
NCCCN1CCSC1c1ccc2c(c1)OCO2 (stereo not drawn) [D]				0	0	0		5/5	5/5	5/5		complete protection	100	50	Drug Related Lethality (test mice [1]; [16]): 0/5; Survivors (%) (test mice [1]; [16]): 100%; Drug Related Lethality (test mice [1]; [17]): 5/5; Survivors (%) (test mice [1]; [17]): 0%; Drug Related Lethality (test mice [1]; [18]): 5/5; Survivors (%) (test mice [1]; [18]): 0%; Drug Related Lethality (test mice [1]; [19]): 5/5; Survivors (%) (test mice [1]; [19]): 0%; Deaths (test mice [3]; 37.5 mg/kg ip): 0/5
